Reference: ChEMBL document CHEMBL1944583, “Synthesis and evaluation of hexahydropyrrolo[3,4-d]isoxazole-4,6-diones as anti-stress agents” (Eur J Med Chem, 2012)
Active and inactive are the calls of the source. The calls are words filed in the database; no cut-off is given here.

Columns and labels:
[1] = test system: Mus musculus; experiment: Antistress activity in Swiss albino mouse assessed as reversal of immobilization stress-induced decrease in rearing at 2 mg/kg, ip administered 60 mins before stress induction measured after 10 mins by hole board test; type: functional, organism-based; set-up: dose 2 mg/kg
[2] = test system: Mus musculus; experiment: Antistress activity in Swiss albino mouse assessed as reversal of immobilization stress-induced decrease in frequency of rearing at 2 mg/kg, ip administered 60 mins before stress induction measured after 10 mins by open field test; type: functional, organism-based; set-up: dose 2 mg/kg
[3] = test system: Mus musculus; experiment: Antistress activity in Swiss albino mouse assessed as reversal of immobilization stress-induced decrease in number of line crossing at 2 mg/kg, ip administered 60 mins before stress induction measured after 10 mins by open field test; type: functional, organism-based; set-up: dose 2 mg/kg
[4] = test system: Mus musculus; experiment: Antistress activity in Swiss albino mouse assessed as reversal of immobilization stress-induced decrease in locomotor activity at 2 mg/kg, ip administered 60 mins before stress induction measured every 5 mins by actophotometer test; type: functional, organism-based; set-up: dose 2 mg/kg
[5] = test system: Mus musculus; experiment: Antistress activity in Swiss albino mouse assessed as reversal of immobilization stress-induced decrease in frequency of head dip at 2 mg/kg, ip administered 60 mins before stress induction measured after 10 mins by hole board test; type: functional, organism-based; set-up: dose 2 mg/kg
[6] = test system: Mus musculus; experiment: Antistress activity in Swiss albino mouse assessed as […] immobilization stress-induced decrease in non-social behavior at 2 mg/kg, ip administered 60 mins before stress induction measured after 10 mins by open field test; type: functional, organism-based; set-up: dose 2 mg/kg
[7] = test system: Mus musculus; experiment: Antistress activity in Swiss albino mouse assessed as reversal of immobilization stress-induced decrease in frequency of rearing at 5 mg/kg, ip administered 60 mins before stress induction measured after 10 mins by open field test; type: functional, organism-based; set-up: dose 5 mg/kg
[8] = test system: Mus musculus; experiment: Antistress activity in Swiss albino mouse assessed as reversal of immobilization stress-induced decrease in number of line crossing at 10 mg/kg, ip administered 60 mins before stress induction measured after 10 mins by open field test; type: functional, organism-based; set-up: dose 10 mg/kg
[9] = test system: Mus musculus; experiment: Antistress activity in Swiss albino mouse assessed as reversal of immobilization stress-induced decrease in non-social behavior at 5 mg/kg, ip administered 60 mins before stress induction measured after 10 mins by open field test; type: functional, organism-based; set-up: dose 5 mg/kg
[10] = test system: Mus musculus; experiment: Antistress activity in Swiss albino mouse assessed as reversal of immobilization stress-induced decrease in non-social behavior at 10 mg/kg, ip administered 60 mins before stress induction measured after 10 mins by open field test; type: functional, organism-based; set-up: dose 10 mg/kg
[11] = test system: Mus musculus; experiment: Antistress activity in Swiss albino mouse assessed as reversal of immobilization stress-induced decrease in number of line crossing at 5 mg/kg, ip administered 60 mins before stress induction measured after 10 mins by open field test; type: functional, organism-based; set-up: dose 5 mg/kg
[12] = test system: Mus musculus; experiment: Antistress activity in Swiss albino mouse assessed as reversal of immobilization stress-induced decrease in locomotor activity at 5 mg/kg, ip administered 60 mins before stress induction measured every 5 mins by actophotometer test; type: functional, organism-based; set-up: dose 5 mg/kg
[13] = test system: Mus musculus; experiment: Antistress activity in Swiss albino mouse assessed as reversal of immobilization stress-induced decrease in locomotor activity at 10 mg/kg, ip administered 60 mins before stress induction measured every 5 mins by actophotometer test; type: functional, organism-based; set-up: dose 10 mg/kg
[14] = test system: Mus musculus; experiment: Antistress activity in Swiss albino mouse assessed as reversal of immobilization stress-induced decrease in frequency of rearing at 10 mg/kg, ip administered 60 mins before stress induction measured after 10 mins by open field test; type: functional, organism-based; set-up: dose 10 mg/kg
[15] = test system: Mus musculus; experiment: Toxicity in Swiss albino mouse assessed as increase in frequency of head dips at 10 mg/kg, ip; type: organism-based; set-up: dose 10 mg/kg, route intraperitoneal; details: in vivo
[16] = test system: Mus musculus; experiment: Toxicity in Swiss albino mouse assessed as increase in frequency of rearing at 10 mg/kg, ip; type: organism-based; set-up: dose 10 mg/kg, route intraperitoneal; details: in vivo
[17] = test system: Mus musculus; experiment: Antistress activity in Swiss albino mouse assessed as reversal of immobilization stress-induced decrease in frequency of head dip at 5 mg/kg, ip administered 60 mins before stress induction measured after 10 mins by hole board test; type: functional, organism-based; set-up: dose 5 mg/kg
[18] = Half life in Swiss albino mouse; type: ADME, organism-based; details: in vivo
[19] = test system: Mus musculus; experiment: Antistress activity in Swiss albino mouse assessed as reversal of immobilization stress-induced decrease in frequency of head dip at 10 mg/kg, ip administered 60 mins before stress induction measured after 10 mins by hole board test; type: functional, organism-based; set-up: dose 10 mg/kg
[20] = test system: Mus musculus; experiment: Antistress activity in Swiss albino mouse assessed as reversal of immobilization stress-induced decrease in rearing at 10 mg/kg, ip administered 60 mins before stress induction measured after 10 mins by hole board test; type: functional, organism-based; set-up: dose 10 mg/kg
[21] = test system: Mus musculus; experiment: Antistress activity in Swiss albino mouse assessed as reversal of immobilization stress-induced decrease in rearing at 5 mg/kg, ip administered 60 mins before stress induction measured after 10 mins by hole board test; type: functional, organism-based; set-up: dose 5 mg/kg

CN1C(=O)CN=C(c2ccccc2)c2cc(Cl)ccc21
Activity [1]: Active | Activity [2]: Active | Activity [3]: Active | Activity [4]: Active | Activity [5]: Active | Activity [6]: Active

O=C1[C@@H]2[C@@H](ON(c3ccccc3)[C@H]2c2ccccc2)C(=O)N1c1cccc2ccccc12 (relative stereo)
Activity [7]: inactive | Activity [8]: Active | Activity [9]: inactive | Activity [10]: Active | Activity [11]: inactive | Activity [12]: inactive | Activity [13]: Active | Activity [14]: Active | Activity [2]: inactive | Activity [15]: Non-toxic | Activity [3]: inactive | Activity [4]: inactive | Activity [16]: Non-toxic | Activity [6]: inactive

O=C1[C@H]2[C@@H](c3ccccc3)N(c3ccccc3)O[C@H]2C(=O)N1c1cccc2ccccc12 (relative stereo)
Activity [7]: Active | Activity [8]: Active | Activity [9]: Active | Activity [10]: Active | Activity [11]: Active | Activity [17]: Active | Activity [12]: Active | Activity [13]: Active | half-life [18]: 180 min | Activity [14]: Active | Activity [19]: Active | Activity [1]: inactive | Activity [15]: Non-toxic | Activity [20]: Active | Activity [16]: Non-toxic | Activity [5]: inactive | Activity [21]: Active
